Measured values taken from patent US4305942A, “Xanthine oxidase inhibitor and therapeutic treatment using same” (Siegfried Aktiengesellschaft, priority 1979, dated 1981).
pIC50: −log10 of the molar value. Read-outs that look alike come from different tables or passages of the source.

Tests used:
[1] = target: T1, xanthine oxidase (Bos taurus, UniProt P80457); experiment: xanthine oxidase inhibition in vitro (UV-spectrophotometric uric acid formation at 290 nm from hypoxanthine); format: biochemical; conditions: for Inhibition (%) of xanthine oxidase: 6 minutes, ambient temperature
T1 construct: purchased CALBIOCHEM 682151
T1 sequence (P80457 whole entry): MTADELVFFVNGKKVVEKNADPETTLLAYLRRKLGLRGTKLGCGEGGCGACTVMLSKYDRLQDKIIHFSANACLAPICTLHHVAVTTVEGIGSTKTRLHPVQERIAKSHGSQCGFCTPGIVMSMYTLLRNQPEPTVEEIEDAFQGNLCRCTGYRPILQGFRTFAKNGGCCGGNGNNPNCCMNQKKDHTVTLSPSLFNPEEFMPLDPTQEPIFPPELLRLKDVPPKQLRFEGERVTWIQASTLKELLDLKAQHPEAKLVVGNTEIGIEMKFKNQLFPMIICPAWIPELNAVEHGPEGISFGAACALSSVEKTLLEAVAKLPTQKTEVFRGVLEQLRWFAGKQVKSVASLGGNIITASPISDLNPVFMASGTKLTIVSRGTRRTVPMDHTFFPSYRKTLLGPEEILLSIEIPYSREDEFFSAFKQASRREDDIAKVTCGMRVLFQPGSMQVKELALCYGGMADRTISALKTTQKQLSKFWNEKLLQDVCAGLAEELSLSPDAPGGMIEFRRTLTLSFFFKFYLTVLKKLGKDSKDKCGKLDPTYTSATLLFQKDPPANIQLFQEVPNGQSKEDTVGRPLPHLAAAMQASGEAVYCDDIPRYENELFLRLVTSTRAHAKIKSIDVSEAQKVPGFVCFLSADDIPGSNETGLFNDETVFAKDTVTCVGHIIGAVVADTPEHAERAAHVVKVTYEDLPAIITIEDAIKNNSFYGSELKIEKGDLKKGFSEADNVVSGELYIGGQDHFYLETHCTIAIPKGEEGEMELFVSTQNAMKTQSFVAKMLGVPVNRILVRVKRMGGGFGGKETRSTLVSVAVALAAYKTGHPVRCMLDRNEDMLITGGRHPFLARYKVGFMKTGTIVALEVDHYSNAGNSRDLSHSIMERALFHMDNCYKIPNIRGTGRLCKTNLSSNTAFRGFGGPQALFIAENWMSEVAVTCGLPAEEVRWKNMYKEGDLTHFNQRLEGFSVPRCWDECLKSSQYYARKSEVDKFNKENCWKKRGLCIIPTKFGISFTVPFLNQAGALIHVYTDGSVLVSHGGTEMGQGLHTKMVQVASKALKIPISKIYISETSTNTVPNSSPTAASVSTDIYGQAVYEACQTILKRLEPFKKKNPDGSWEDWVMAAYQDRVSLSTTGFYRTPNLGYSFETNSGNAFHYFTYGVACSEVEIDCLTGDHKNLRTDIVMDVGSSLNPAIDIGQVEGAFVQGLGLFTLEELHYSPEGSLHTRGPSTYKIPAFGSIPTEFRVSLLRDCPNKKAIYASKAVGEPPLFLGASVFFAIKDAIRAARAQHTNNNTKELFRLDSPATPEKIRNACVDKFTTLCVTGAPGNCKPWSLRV
Procedure: In the human in vivo metabolism the xanthine oxidase decomposes xanthine and hypoxanthine, respectively, to yield uric acid. This decomposition reaction can be perfectly simulated in vitro. For this purpose buffered solutions of (a) hypoxanthine, (b) xanthine oxidase and (c) the test substance are prepared. Solution (a) and (c) are mixed and filled into the cuvette of a UV-spectrophotometer. Solution (b) is then added into the cuvette. The UV-spectrophotometer is adjusted to 290 nm, i.e. to one of the main absorption lines of uric acid. Registration of the intensity of the 290 nm line is commenced immediately upon adding solution (b), i.e., upon adding the xanthine oxidase solution. The measurement is continued for exactly 6 minutes. For each test substance a certain number of measurements is carried out at varying concentrations of the test substance. The registered intensity values obtained after a certain time, here after 6 minutes, are compared to a standard registration containing as a solution (c) a blank buffer solution.
For the present measurements the UV-spectrophotometer used is a ZEISS PM Q II.
Solution (a) is 1 ml hypoxanthine puriss (FLUKA No. 56700) dissolved in a concentration of 1.5×10^-4 moles/liter in a 0.067 molar phosphate buffer solution having a pH of 7.4.
Solution (b) is 1 ml xanthine oxidase (CALBIOCHEM No. 682151) having a specific activity of 2.65 I.U./ml at 30° C., and is diluted in a ratio of 1:200 in the same phosphate buffer as used in solution (a).
Solution (c) is 1 ml of blank phosphate buffer for controls (standards) and a solution of the test substance dissolved in said phosphate buffer in varying concentrations, respectively.
The spectrophotometric measurements are carried out at ambient temperature.

[2] = cited from earlier work

Inhibition (%) of xanthine oxidase ([1]; 1.25 × 10^-5 moles/liter azapropazone, pH 7.4) [%] | Inhibition (%) of xanthine oxidase ([1]; 2.50 × 10^-5 moles/liter azapropazone, pH 7.4) [%] | Inhibition (%) of xanthine oxidase ([1]; 5.00 × 10^-5 moles/liter azapropazone, pH 7.4) [%] | pIC50 ([1]; 50% inhibition concentration (xanthine oxidase), IC50 expressed in μg/ml) | pIC50 ([1]; 50% inhibitive concentration IC50 (xanthine oxidase), interpolated from inhibition values, hypoxanthine substrate, pH 7.4) | Structure (SMILES) | plasma level ([2]; 1000 mg/d azapropazone orally in one single portion) [ng/mL] | plasma level ([2]; 300 mg/d allopurinol orally in one single portion) [ng/mL]
20 | 35 | 55 | 4.35 | 4.40 | CCCC1C(=O)N2C(N(C)C)=Nc3ccc(C)cc3N2C1=O (stereo not shown) [azapropazone, 3-dimethylamino-7-methyl-1,2-(n-propylmalonyl)-1,2-dihydro-1,2,4-benzotriazine dihydrate] | 80800 | 
 |  |  |  |  | Oc1ncnc2[nH]ncc12 [allopurinol] |  | 2000
